According to patent publication US9463193B2, “Individual 5-fluorouracile dose optimization in folfiri treatment” (INSTITUT DE CANCEROLOGIE DE L'OUEST, priority 2008, dated 2016):

Assays:
[1] = human, in vivo
Protocol: A total of 90 patients were studied. All were treated for advanced colorectal cancer following treatment including irinotecan, fluorouracil and leucovorin (FOLFIRI Regimen)
After 200 mg/m^2 of intravenous leucovorin bolus and 400 mg/m^2 of intravenous push of 5-FU for 10 minutes, 5-FU was administered with an initial dose of 2,500 mg/m^2 every two weeks for 46-hours through a battery-operated pump, except in case of DPD significant mutation, in which case the initial dose of 5-FU in 46 hours continuous infusion was decreased by 50%.
Irinotecan was administered before 5-FU for 2 hours and the initial dose was 180 mg/m^2 without reduction for UGT 1A1 7/7 genotype group.
Treatment was continued until documented progression.
Statistical analysis used the chi2 test, linear regression analysis and the Kaplan-Meier method.

[2] = patients treated by 5-FU; cited from earlier work
[3] = cited from earlier work
[4] = subject with normal DPD enzymatic activity

O=c1[nH]cc(F)c(=O)[nH]1 [5-FU, 5-fluorouracile]
neutropenia grade 4, number observed [1]: 1 | death due to polyvisceral toxicity [2]: 0.8 % of treated patients | severe grade 3-4 toxicity [2]: 20-25% | very early polyvisceral toxicity [2]: 5-8 % of patients | time to plateau of plasmatic levels after beginning of continuous infusion ([3]; 5-FU continuous infusion): about 1 hour | half-life in blood ([3]; human, in vivo): very short | 5-FU clearance variation depending on the subject ([3]; interindividual): 6 to 10 factor | clearance multiplication from bolus administration to continued perfusion ([3]; perfusion during several hours or days): 10 factor | administered 5-FU available for the anabolic pathway [3, 4]: 20% | administered 5-FU eliminated by DPD in the catabolic pathway [3, 4]: about 80%
